Tested on: db/db mice
Test: In vivo assay in db/db mice (model of postprandial glycemia)
Settings: db/db mice fasted 20 hours, 50 mg/kg p.o., 4 hrs after drug administration, compared to vehicle-treated animals (Group 1)
Procedure: In Vivo Assay in db/db Mice
The following assay aims at determining the anti-diabetic effect of the test compounds of formula (I) in a model of postprandial glycemia in db/db mice, in vivo.
The assay was performed as follows:
A total of 18 db/db mice (about 8-9 weeks; obtained from IFFACREDO, l'Arbreste, France) were fasted during 20 hours.
3 groups, each consisting of 6 animals were formed: • Group 1: The animals were administered (per os) a dose of 10 mg/kg of vehicle. • Group 2: The animals were administered (per os) a dose of 30 mg/kg of the test compound according to formula (I). • Group 3: The animals were administered (per os) a dose of 50 mg/kg of the test compound according to formula (I).
After oral administration of the compounds of formula (I) solubilized or suspended in CarboxyMethylCellulose (0.5%), Tween 20 (0.25%) and water as vehicle, the animals had access to commercial food (D04, UAR, Villemoisson/Orge, France) ad libitum. The diabetic state of the mice was verified by determining the blood glucose level before drug administration. Blood glucose and serum insulin levels were then determined 4 hrs after drug administration. […]
Changes in blood glucose and serum insulin of drug treated mice were expressed as a percentage of control (group 1: vehicle treated mice).

SMILES: CCCCNC1CCN(S(=O)(=O)c2ccc(CNC(=O)c3ccc(Cl)cc3)s2)CC1 [4-chloro N-[(5-{[(butylamino)piperidin-1-yl]sulfonyl}thien-2-yl)methyl]benzamide]
- decrease in the (serum/blood) insulin level (ELISA): 61%
- decrease in blood glucose level induced by food intake: 42%

Source: patent US7705052B2, “Sulfonamide derivatives for the treatment of diabetes” (Merck Serono SA, priority 2003, dated 2010)
